Among the test systems are 786-0; ACHN; Hs-578T; MDA-MB-435; MDA-N; SR; LXFL 529; RXF 631; SNB-78.
Holding throughout (assay): DTP human tumour cell line panel, 48 h

We go through 30 compounds from ChEMBL document CHEMBL1201862, “PubChem BioAssay data set” (2004).

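Cells were grown in 96-well plates and exposed to each compound for 48 hours at five concentrations; endpoints were interpolated linearly between bracketing concentrations, or set to the highest concentration if not reached. GI50 is the concentration that inhibits growth by half.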 Calls of active or inactive are those of the source. Cut-off read from the data, not from the text of the source: active = GI50 up to about 1.1 µM and inactive = higher.

As a reminder, the GI50 is the concentration that inhibits growth by half.

As for `CC1(C)CCC(C)(C)c2c1ccc(O)c2Cc1c(O)ccc2c1C(C)(C)CCC2(C)C`, the GI50 in the assay with 786-0 is 1.92 µM (inactive); with ACHN, 1.74 µM (inactive); with Hs-578T it was 2.84 µM (inactive); in the assay with MDA-MB-435 it was 1.87 µM (inactive); with MDA-N, 1.92 µM (inactive); in the assay with SR, 2.7 µM (inactive).
For the compound `C=CS(=O)(=O)c1c2cc(OC)ccc2nc2ccc(OC)cc12`, the GI50 is 2.37 µM (inactive) with 786-0; 3.35 µM (inactive) in the assay with ACHN; 2.97 µM (inactive) in the assay with Hs-578T; 5.58 µM (inactive) in the assay with MDA-MB-435; 3.5 µM (inactive) with MDA-N; 2.32 µM (inactive) with SR.
As for `Clc1nc(Cl)nc(Nc2cccc3ccccc23)n1`, the GI50 with ACHN, in the assay with Hs-578T, with MDA-MB-435, with MDA-N and with SR was > 10 µM (inactive) in each case.
For the compound `COc1ccc(C(=O)Cc2ccc(Cl)cc2)cc1OC`, the GI50 in the assay on ACHN, in the assay with LXFL 529, in the assay on RXF 631, in the assay with SNB-78 and in the assay with SR was > 100 µM (inactive) in each case.
For the compound `CN(C)CCNC(=O)c1cccc2[nH]c(-c3ccc(Cl)cc3)nc12`, the GI50 in the assay with SNB-78 is 15.9 µM (inactive).
As to `Cc1cc(Cl)ccc1NC1=NC(=O)C(CC(=O)Nc2cccc(Cl)c2)S1` (configuration not stated), the GI50 is 46.8 µM (inactive) in the assay on 786-0, 11.2 µM (inactive) with ACHN, 39.9 µM (inactive) with LXFL 529 and > 100 µM (inactive) in the assay with SNB-78.
Regarding `C=CCOC1=C(OCC=C)C(C2COC(C)(C)O2)OC1=O` (configuration not stated), the GI50 in the assay on 786-0 is 67 µM (inactive); in the assay on ACHN, > 100 µM (inactive); with Hs-578T it was > 100 µM (inactive); in the assay on MDA-MB-435 it was > 100 µM (inactive); in the assay on MDA-N it was > 100 µM (inactive); with SR, 98.2 µM (inactive).
On to `Fc1ccc(C(OCCN2CCC3CCC(C2)N3Cc2cc3ccccc3[nH]2)c2ccc(F)cc2)cc1` (configuration not stated), for which the GI50 is 1.65 µM (inactive) with 786-0; 1.89 µM (inactive) with ACHN; 1.88 µM (inactive) in the assay on Hs-578T; 1.88 µM (inactive) in the assay on MDA-MB-435; 1.73 µM (inactive) with MDA-N.
Turning to `O=C1C(Cl)=C(c2ccc([N+](=O)[O-])cc2)C(=O)c2c(O)cccc21`, the GI50 in the assay on 786-0 was 3.15 µM (inactive); with ACHN, 1.11 µM (active); in the assay with Hs-578T it was 1.19 µM (inactive); with LXFL 529, 0.273 µM (active); in the assay on MDA-MB-435 it was 2.05 µM (inactive); in the assay with MDA-N, 2.49 µM (inactive). The GI50 with SNB-78 was 1.83 µM (inactive); in the assay on SR, 0.134 µM (active).
Regarding `O=C1CCCCC[C@]12SC[C@H]1CON=C12`, the GI50 in the assay on 786-0 was 34 µM (inactive); in the assay on ACHN, 27.8 µM (inactive); with Hs-578T it was 59 µM (inactive); with MDA-MB-435, 16.7 µM (inactive); with MDA-N, 12.5 µM (inactive); in the assay on SR, 9.42 µM (inactive).
Turning to `CC(=O)NNc1nc(C)c(C(=O)NNC(=O)C(=O)Nc2cccc(C(C)=O)c2)s1`, the GI50 in the assay with ACHN was 16.9 µM (inactive); in the assay on RXF 631, 26.6 µM (inactive); with SNB-78, 75.3 µM (inactive); in the assay with SR, 18 µM (inactive).
As for `O=C1NCN(c2ccccc2)C12CCN(CCCN1CCN(CCOC(c3ccc(F)cc3)c3ccc(F)cc3)CC1)CC2`, the GI50 was 1.63 µM (inactive) with 786-0; 1.99 µM (inactive) with ACHN; 2.06 µM (inactive) in the assay with Hs-578T; 1.76 µM (inactive) in the assay on MDA-MB-435; 1.82 µM (inactive) in the assay on MDA-N; 2.36 µM (inactive) in the assay on SR.
For the compound `Cn1c(=O)c2nc(N3CCOCC3)cnc2n(C)c1=O`, the GI50 in the assay on ACHN, in the assay on LXFL 529, in the assay on SNB-78 and with SR was > 100 µM (inactive) throughout.
For `CC1(C)C(=O)c2ccccc2OC1N1CCN(C2Oc3ccccc3C(=O)C2(C)C)CC1` (configuration not stated), the GI50 is > 100 µM (inactive) in the assay on ACHN; 61.1 µM (inactive) in the assay with Hs-578T; > 100 µM (inactive) in the assay on MDA-MB-435; > 100 µM (inactive) in the assay with MDA-N; > 100 µM (inactive) in the assay with SR.
On to `COc1cc(C2(c3ncc[nH]3)SSSCC2O)ccc1O` (configuration not stated), for which the GI50 in the assay with SNB-78 is 34.2 µM (inactive).
For `Cn1ccnc1C(O)(c1nccn1C)c1nccn1C`, the GI50 in the assay on ACHN, in the assay on LXFL 529, with SNB-78 and with SR was > 100 µM (inactive) in each case.
As to `COC(=O)C1CC=C(SC(=O)c2ccccc2)N1C(=O)c1ccccc1` (configuration not stated), the GI50 with 786-0, in the assay with ACHN, with Hs-578T, in the assay on MDA-MB-435 and in the assay with MDA-N was > 100 µM (inactive) each time.
Take `CCCCP1(=O)C=CC(Cl)=C(C)C1` (configuration not stated): the GI50 in the assay on 786-0, with ACHN, in the assay with LXFL 529 and in the assay with SNB-78 was > 100 µM (inactive) each time.
Take `C=CCN(N=O)C(=O)N(CCC)CCCCC(NC(C)=O)C(=O)NCc1ccccc1` (configuration not stated): the GI50 is > 100 µM (inactive) with 786-0, > 100 µM (inactive) in the assay with ACHN, 62.5 µM (inactive) in the assay on LXFL 529 and > 100 µM (inactive) in the assay on RXF 631.
For the compound `Cc1nc(-c2cccnc2)sc1C(=O)CC(=O)C(=O)Nc1cccc(NC(=O)C(=O)CC(=O)c2sc(-c3cccnc3)nc2C)n1`, the GI50 with 786-0, in the assay on ACHN, with Hs-578T, in the assay on MDA-MB-435, with MDA-N and in the assay on SR was > 100 µM (inactive) throughout.
With `COC(=O)C1CCC(=O)N1C(=O)Cc1ccc(OC)cc1` (configuration not stated), the GI50 in the assay on ACHN, with LXFL 529 and with SNB-78 was > 100 µM (inactive) in each case.
Take `CC(C)C1NC(=O)CC(c2ccccc2)N(N=O)C1c1ccccc1` (configuration not stated): the GI50 in the assay with SNB-78 is > 100 µM (inactive).
For the compound `c1ccc(/N=C2\S/C(=N\C3CCCCC3)N(C3CCCCC3)\C2=N/c2ccccc2)cc1`, the GI50 with Hs-578T, in the assay with MDA-MB-435, in the assay with MDA-N and in the assay on SR was > 100 µM (inactive) each time.
For the compound `O=C1C2=C(C3=NCCc4c[nH]c1c43)c1c(Br)cc(Br)cc1CCN2`, the GI50 in the assay with SNB-78 was 5.55 µM (inactive).
The same measure, in the same setting: for `CO/C=C1\OC(=O)C=C1OC` the value was > 100 µM (inactive).
Regarding `c1ccc(COC2(OCc3ccccc3)CC3OC2C2NN=NC32)cc1` (configuration not stated), the GI50 was 20 µM (inactive) in the assay on 786-0, > 100 µM (inactive) in the assay with ACHN, 15.3 µM (inactive) in the assay on LXFL 529 and 28.7 µM (inactive) in the assay on SNB-78.
As to `CC1(C)COC(/C=C/C2=NC(C)(C)CO2)=N1`, the GI50 in the assay on ACHN was 17.4 µM (inactive); in the assay with Hs-578T it was < 0.01 µM (active); in the assay on MDA-MB-435 it was 23.7 µM (inactive); in the assay with MDA-N, 20.1 µM (inactive); in the assay on SR it was 4.44 µM (inactive).
In the same order, the values of `CC1OC2=N[C@@H]1C(=O)N[C@@H](Cc1ccccc1)C1=N[C@H](C(=O)N[C@@H](Cc3ccccc3)C3=N[C@H](C(=O)N[C@H]2Cc2ccccc2)C(C)O3)C(C)O1` (some centres not stated) are 31.3 µM (inactive), 24.3 µM (inactive), 28 µM (inactive), 43.2 µM (inactive) and 27.9 µM (inactive).
For the compound `COc1ccc(C2C(Cl)C(=O)N2NC(=O)c2ccccc2O)cc1` (configuration not stated), the GI50 in the assay on LXFL 529 and in the assay with SR was > 100 µM (inactive) throughout.
Regarding `Cc1c2cc[n+](Cc3ccc(I)cc3)cc2c(C)c2c1[nH]c1ccccc12`, the GI50 with SNB-78 was 0.731 µM (active).
